{
  "source": "patent US11129842B2",
  "about": "“Methods and compositions for treating diseases related to imbalance of essential fatty acids” (BODYBIO INC., priority 2018, dated 2021)",
  "origin": "cited, not measured here",
  "key": {"CB2 receptor": {"target": "CB2 receptor (Homo sapiens, UniProt P34972)", "sequence (P34972 whole entry)": "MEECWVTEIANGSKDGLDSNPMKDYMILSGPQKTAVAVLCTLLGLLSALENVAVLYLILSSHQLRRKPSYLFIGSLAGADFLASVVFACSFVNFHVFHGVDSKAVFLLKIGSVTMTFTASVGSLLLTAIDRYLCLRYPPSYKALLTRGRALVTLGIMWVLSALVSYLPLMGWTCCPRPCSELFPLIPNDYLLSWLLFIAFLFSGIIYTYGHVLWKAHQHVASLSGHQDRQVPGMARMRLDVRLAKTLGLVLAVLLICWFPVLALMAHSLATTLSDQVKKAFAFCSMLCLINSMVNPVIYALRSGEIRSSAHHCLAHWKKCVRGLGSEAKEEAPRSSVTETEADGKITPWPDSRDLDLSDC"}, "CB1 cannabinoid receptor": {"target": "CB1 cannabinoid receptor (Homo sapiens, UniProt P21554)", "sequence (P21554 whole entry)": "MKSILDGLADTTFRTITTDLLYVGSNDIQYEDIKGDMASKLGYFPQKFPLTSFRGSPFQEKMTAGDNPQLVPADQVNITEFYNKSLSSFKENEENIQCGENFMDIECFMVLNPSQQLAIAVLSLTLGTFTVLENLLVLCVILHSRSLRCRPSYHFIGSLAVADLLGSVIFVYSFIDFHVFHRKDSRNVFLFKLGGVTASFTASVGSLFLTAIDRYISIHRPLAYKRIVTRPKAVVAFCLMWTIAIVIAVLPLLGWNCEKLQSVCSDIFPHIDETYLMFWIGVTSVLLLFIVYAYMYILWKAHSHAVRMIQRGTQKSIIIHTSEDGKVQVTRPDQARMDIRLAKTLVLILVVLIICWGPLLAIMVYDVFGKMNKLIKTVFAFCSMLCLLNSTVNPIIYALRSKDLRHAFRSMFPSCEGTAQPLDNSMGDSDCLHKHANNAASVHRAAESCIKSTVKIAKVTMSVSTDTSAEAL"}},
  "data": [
    {"smiles": "CCCCC/C=C\\C/C=C\\C/C=C\\C/C=C\\CCCCOC(CO)CO", "note": "[Noladin ether, 2-arachidonyl glyceryl ether]", "values": [
      {"measurement": "binding to the CB2 receptor", "setting": "CB2 receptor", "result": "only weakly"},
      {"measurement": "Ki", "setting": "CB1 cannabinoid receptor", "result": 21.2, "unit": "nM"}
    ]}
  ]
}
